Test results from patent US20250230193A1, “CYCLIC COMPOUND HAVING SELECTIVE KRAS INHIBITORY EFFECT ON HRAS AND NRAS” (CHUGAI SEIYAKU KABUSHIKI KAISHA, priority 2022, published 2025).
Read-outs that look alike come from different tables or passages of the source.

What was measured:
[1] = molecular target: GDP-bound NRAS wild-type protein (Homo sapiens, UniProt P01111); experiment: Binding to NRAS by surface plasmon resonance (SPR), Single Cycle Kinetics; details: SPR; for NRAS/KRAS (ratio of KD value for GDP-bound NRAS wild-type protein to KD value for KRAS): KD ratio class
Chain of GDP-bound NRAS wild-type protein (P01111 whole entry): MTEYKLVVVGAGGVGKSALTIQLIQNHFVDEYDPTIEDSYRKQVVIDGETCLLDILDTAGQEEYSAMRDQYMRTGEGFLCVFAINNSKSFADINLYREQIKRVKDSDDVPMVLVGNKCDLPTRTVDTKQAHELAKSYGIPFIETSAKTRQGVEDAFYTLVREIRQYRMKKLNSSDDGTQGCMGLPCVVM

[2] = molecular target: GDP-bound KRAS wild-type protein (Homo sapiens, UniProt P01116); experiment: Binding to KRAS by surface plasmon resonance (SPR), Single Cycle Kinetics; details: GDP-bound KRAS wild-type protein
[3] = molecular target: GDP-bound HRAS wild-type protein (Homo sapiens, UniProt P01112); experiment: Binding to HRAS by surface plasmon resonance (SPR), Single Cycle Kinetics; details: SPR; for HRAS/KRAS (ratio of KD value for GDP-bound HRAS wild-type protein to KD value for KRAS): KD ratio class
Chain of GDP-bound HRAS wild-type protein (P01112 whole entry): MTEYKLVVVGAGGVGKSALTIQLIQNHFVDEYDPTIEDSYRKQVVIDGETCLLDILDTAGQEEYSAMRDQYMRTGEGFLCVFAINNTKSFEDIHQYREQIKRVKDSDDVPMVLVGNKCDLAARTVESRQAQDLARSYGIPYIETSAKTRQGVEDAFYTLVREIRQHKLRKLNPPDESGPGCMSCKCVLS

[4] = test system: human lung cancer strain NCI-H441
[5] = read-out: NCI-H441 IC50, NCI-H441 cells, 4 days, CellTiter-Glo

CC[C@H](C)[C@@H]1NC(=O)[C@H](CC(C)C)N(C)C(=O)C[C@@H](C(=O)N(C)C)N(C)C(=O)[C@H](C2CCCC2)N(C)C(=O)C2(CCCC2)NC(=O)C2CCCN2C(=O)[C@H](CCc2ccc(C(F)(F)F)c(Cl)c2)NC(=O)CN(C)C(=O)[C@H](Cc2ccc(C(F)(F)F)cc2)N2CC/C=C(/C)C[C@@H](C2=O)N(C)C(=O)CN(C)C1=O (some centres unmarked) [PP0617]
NRAS/KRAS (ratio of KD value with respect to GDP-bound NRAS wild-type protein to KD value with respect to KRAS) ([1]; KD ratio NRAS/KRAS): B (a compound having 3 or more and less than 10 is denoted as B) | Kd ([2]; SPR Single Cycle Kinetics, 1:1 binding model): 6.9 nM | HRAS/KRAS (ratio of KD value with respect to GDP-bound HRAS wild-type protein to KD value with respect to KRAS) ([3]; KD ratio HRAS/KRAS): B (a compound having 3 or more and less than 10 is denoted as B) | IC50 [4]: 159 nM

CCO[C@@H]1C[C@H]2C(=O)NC3(CCCC3)C(=O)N(C)[C@@H](C3CCCC3)C(=O)N(C)[C@H](C(=O)N(C)C)CC(=O)N(C)[C@@H](CC)C(=O)N[C@@H]([C@@H](C)CC)C(=O)N(C)CC(=O)N(C)[C@H]3C/C=C\CCN(C3=O)[C@@H](Cc3ccc(C(F)(F)F)cc3)C(=O)N(C)CC(=O)N[C@@H](CCc3cc(F)c(C(F)(F)F)c(F)c3)C(=O)N2C1 [PP1276]
NRAS/KRAS (ratio of KD value for GDP-bound NRAS wild-type protein to KD value for KRAS) [1]: A (a compound having 10 or more and less than 20 is denoted as A) | Kd ([2]; SPR, Single Cycle Kinetics): 0.066 nM | HRAS/KRAS (ratio of KD value for GDP-bound HRAS wild-type protein to KD value for KRAS) [3]: B (a compound having 3 or more and less than 10 is denoted as B) | IC50 [4, 5]: 20.8 nM

CCO[C@@H]1C[C@H]2C(=O)NC3(CCC3)C(=O)N(C)[C@@H](C3CCCC3)C(=O)N(C)[C@H](C(=O)N(C)C)CC(=O)N(C)[C@@H](CC3CC3)C(=O)N[C@@H]([C@@H](C)CC)C(=O)N(C)CC(=O)N(C)[C@H]3C/C=C\CCN(C3=O)[C@@H](CC3CCC(F)(F)CC3)C(=O)N(C)CC(=O)N[C@@H](CCc3cc(F)c(C(F)(F)F)c(F)c3)C(=O)N2C1 [PP1447]
NRAS/KRAS (ratio of KD value for GDP-bound NRAS wild-type protein to KD value for KRAS) [1]: A (a compound having 10 or more and less than 20 is denoted as A) | Kd ([2]; SPR, Single Cycle Kinetics): 0.12 nM | HRAS/KRAS (ratio of KD value for GDP-bound HRAS wild-type protein to KD value for KRAS) [3]: A (a compound having 10 or more and less than 20 is denoted as A) | IC50 [4, 5]: 28.9 nM

CCO[C@@H]1C[C@H]2C(=O)NC3(CCC3)C(=O)N(C)[C@@H](C(CC)CC)C(=O)N(C)C(C(C)C)CC(=O)N(C)[C@@H](CC3CC3)C(=O)N[C@@H]([C@@H](C)CC)C(=O)N(C)CC(=O)N(C)[C@H]3C/C=C\CCN(C3=O)[C@@H](Cc3ccc(C(F)(F)F)cc3)C(=O)N(C)CC(=O)N[C@@H](CCc3cc(F)c(C(F)(F)F)c(F)c3)C(=O)N2C1 (some centres unmarked) [PP1595]
NRAS/KRAS (ratio of KD value for GDP-bound NRAS wild-type protein to KD value for KRAS) [1]: A (a compound having 10 or more and less than 20 is denoted as A) | Kd ([2]; SPR, Single Cycle Kinetics): 2.3 nM | HRAS/KRAS (ratio of KD value for GDP-bound HRAS wild-type protein to KD value for KRAS) [3]: A (a compound having 10 or more and less than 20 is denoted as A) | IC50 [4, 5]: 64.6 nM

CCCCCC[C@H]1C(=O)N[C@@H]([C@@H](C)CC)C(=O)N(C)CC(=O)N(C)[C@H]2C/C=C\CCN(C2=O)[C@@H](Cc2ccc(C(F)(F)F)cc2)C(=O)N(C)CC(=O)N[C@@H](CCc2cc(F)c(C(F)(F)F)c(F)c2)C(=O)N2C[C@H](OCC)C[C@H]2C(=O)NC2(CCC2)C(=O)N(C)[C@@H](C2CCCC2)C(=O)N(C)[C@H](C(=O)N(C)C)CC(=O)N1C [PP1242]
NRAS/KRAS (ratio of KD value for GDP-bound NRAS wild-type protein to KD value for KRAS) [1]: A (a compound having 10 or more and less than 20 is denoted as A) | Kd ([2]; SPR, Single Cycle Kinetics): 0.076 nM | HRAS/KRAS (ratio of KD value for GDP-bound HRAS wild-type protein to KD value for KRAS) [3]: A (a compound having 10 or more and less than 20 is denoted as A) | IC50 [4, 5]: 12.8 nM

CCO[C@@H]1C[C@H]2C(=O)NC3(CCC3)C(=O)N(C)[C@@H](C3CCCC3)C(=O)N(C)[C@H](C(=O)N(C)C)CC(=O)N(C)[C@@H](CC3CC3)C(=O)N[C@@H]([C@@H](C)CC)C(=O)N(C)CC(=O)N(C)[C@H]3C/C=C\CCN(C3=O)[C@@H](Cc3ccc(C(F)(F)F)cc3)C(=O)N(C)CC(=O)N[C@@H](CCc3ccc(Cl)c(Cl)c3)C(=O)N2C1 [PP1253]
NRAS/KRAS (ratio of KD value for GDP-bound NRAS wild-type protein to KD value for KRAS) [1]: A (a compound having 10 or more and less than 20 is denoted as A) | Kd ([2]; SPR, Single Cycle Kinetics): 0.2 nM | HRAS/KRAS (ratio of KD value for GDP-bound HRAS wild-type protein to KD value for KRAS) [3]: A (a compound having 10 or more and less than 20 is denoted as A) | IC50 [4, 5]: 22.2 nM

CCO[C@@H]1C[C@H]2C(=O)NC3(CC(C)(C)C3)C(=O)N(C)[C@@H](C(CC)CC)C(=O)N(C)C(C(C)C)CC(=O)N(C)[C@@H](CC3CC3)C(=O)N[C@@H]([C@@H](C)CC)C(=O)N(C)CC(=O)N(C)[C@H]3C/C=C\CCN(C3=O)[C@@H](Cc3ccc(C(F)(F)F)cc3)C(=O)N(C)CC(=O)N[C@@H](CCc3cc(F)c(C(F)(F)F)c(F)c3)C(=O)N2C1 (some centres unmarked) [PP1593]
NRAS/KRAS (ratio of KD value for GDP-bound NRAS wild-type protein to KD value for KRAS) [1]: A (a compound having 10 or more and less than 20 is denoted as A) | Kd ([2]; SPR, Single Cycle Kinetics): 4.3 nM | HRAS/KRAS (ratio of KD value for GDP-bound HRAS wild-type protein to KD value for KRAS) [3]: A (a compound having 10 or more and less than 20 is denoted as A) | IC50 [4, 5]: 144 nM

CCO[C@@H]1C[C@H]2C(=O)NC3(CCC3)C(=O)N(C)[C@@H](C3CCCC3)C(=O)N(C)[C@H](C(=O)N(C)C)CC(=O)N(C)[C@@H](CSC)C(=O)N[C@@H]([C@@H](C)CC)C(=O)N(C)CC(=O)N(C)[C@H]3C/C=C\CCN(C3=O)[C@@H](CC3CCCCC3)C(=O)N(C)CC(=O)N[C@@H](CCc3cc(F)c(C(F)(F)F)c(F)c3)C(=O)N2C1 [PP1463]
NRAS/KRAS (ratio of KD value for GDP-bound NRAS wild-type protein to KD value for KRAS) [1]: A (a compound having 10 or more and less than 20 is denoted as A) | Kd ([2]; SPR, Single Cycle Kinetics): 0.13 nM | HRAS/KRAS (ratio of KD value for GDP-bound HRAS wild-type protein to KD value for KRAS) [3]: A (a compound having 10 or more and less than 20 is denoted as A) | IC50 [4, 5]: 44.5 nM

CCO[C@@H]1C[C@H]2C(=O)NC3(CCC3)C(=O)N(C)[C@@H](C3CCCC3)C(=O)N(CC)[C@H](C(=O)N(C)C)CC(=O)N(C)[C@@H](CC)C(=O)N[C@@H]([C@@H](C)CC)C(=O)N(C)CC(=O)N(C)[C@H]3CCCCCN(C3=O)[C@@H](Cc3ccc(F)cc3)C(=O)N(C)CC(=O)N[C@@H](CCc3cc(F)c(C(F)(F)F)c(F)c3)C(=O)N2C1 [PP0904]
NRAS/KRAS (ratio of KD value with respect to NRAS to KD value with respect to KRAS) ([1]; KD ratio, GDP-bound NRAS wild-type vs GDP-bound KRAS wild-type): B (a compound having 3 or more and less than 10 is denoted as B) | Kd ([2]; SPR, Single Cycle Kinetics): 0.8 nM | HRAS/KRAS (ratio of KD value with respect to HRAS to KD value with respect to KRAS) ([3]; KD ratio, GDP-bound HRAS wild-type vs GDP-bound KRAS wild-type): B (a compound having 3 or more and less than 10 is denoted as B) | IC50 [4]: 58.7 nM

CCO[C@@H]1C[C@H]2C(=O)NC3(CCC3)C(=O)N(C)[C@@H](C3CCCC3)C(=O)N(C)[C@H](C(=O)N3CCCC3)CC(=O)N(C)[C@@H](CC)C(=O)N[C@@H]([C@@H](C)CC)C(=O)N(C)CC(=O)N(C)[C@H]3C/C=C\CCN(C3=O)[C@@H](CC3CCC(F)(F)CC3)C(=O)N(C)CC(=O)N[C@@H](CCc3cc(F)c(C(F)(F)F)c(F)c3)C(=O)N2C1 [PP1442]
NRAS/KRAS (ratio of KD value for GDP-bound NRAS wild-type protein to KD value for KRAS) [1]: A (a compound having 10 or more and less than 20 is denoted as A) | Kd ([2]; SPR, Single Cycle Kinetics): 0.13 nM | HRAS/KRAS (ratio of KD value for GDP-bound HRAS wild-type protein to KD value for KRAS) [3]: A (a compound having 10 or more and less than 20 is denoted as A) | IC50 [4, 5]: 48.3 nM

CCOC[C@H]1C(=O)N[C@@H]([C@@H](C)CC)C(=O)N(C)CC(=O)N(C)[C@H]2C/C=C\CCN(C2=O)[C@@H](Cc2ccc(C(F)(F)F)cc2)C(=O)N(C)CC(=O)N[C@@H](CCc2cc(F)c(C(F)(F)F)c(F)c2)C(=O)N2C[C@H](OCC)C[C@H]2C(=O)NC2(CCC2)C(=O)N(C)[C@@H](C2CCCC2)C(=O)N(C)[C@H](C(=O)N(C)C)CC(=O)N1C [PP1266]
NRAS/KRAS (ratio of KD value for GDP-bound NRAS wild-type protein to KD value for KRAS) [1]: A (a compound having 10 or more and less than 20 is denoted as A) | Kd ([2]; SPR, Single Cycle Kinetics): 0.045 nM | HRAS/KRAS (ratio of KD value for GDP-bound HRAS wild-type protein to KD value for KRAS) [3]: A (a compound having 10 or more and less than 20 is denoted as A) | IC50 [4, 5]: 12.2 nM
